Experimental data reported in patent US20220267356A1, “ARGINASE INHIBITORS AND METHODS OF USE THEREOF” (AstraZeneca AB, priority 2019, published 2022).
Read-outs that look alike come from different tables or passages of the source.

What was measured:
Human Arginase 1 = target: T1, Human Arginase 1 (Homo sapiens, UniProt P05089); experiment: Human Arginase 1 enzyme inhibition (thioarginine/DTNB absorbance at 412 nm); assay type: biochemical; details: recombinant enzyme 5 nM, 60 min, room temperature
T1 construct: made in house; host or cells: E. coli
T1 sequence (P05089 1-322): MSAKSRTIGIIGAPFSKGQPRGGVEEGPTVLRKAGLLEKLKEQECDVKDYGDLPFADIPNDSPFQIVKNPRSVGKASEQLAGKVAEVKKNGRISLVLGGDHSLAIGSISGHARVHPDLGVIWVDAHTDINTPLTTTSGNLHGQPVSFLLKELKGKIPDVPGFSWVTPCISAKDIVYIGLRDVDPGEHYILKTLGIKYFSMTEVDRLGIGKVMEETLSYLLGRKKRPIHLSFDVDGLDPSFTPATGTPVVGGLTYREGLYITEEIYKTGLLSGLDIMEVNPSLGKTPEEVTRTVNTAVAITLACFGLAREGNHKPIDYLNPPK
From the text: (§1) The inhibitory effects of Examples 1-26 on the activity of Human Arginase 1 and Arginase 2 activity were quantified by measuring the formation of the thiol group from thioarginine using recombinant Arginase 1 or Arginase 2 produced from E. coli. The thiol group was detected with Ellman's reagent, 5,5′-dithiobis(2-nitrobenzoic acid) (DTNB). DTNB reacts with the thiol to give the mixed disulfide and 2-nitro-5-thiobenzoic acid (TNB) which is quantified by the absorbance of the anion (TNB^2−) at 412 nm.
(§2) The assays were run in clear 384 well plates (Greiner cat no: 781101). Various concentrations of Examples 1-26 in 300 nL DMSO were dispensed to assay plates using an Echo acoustic dispenser immediately followed by plate sealing and centrifugation. Two pre-mixes were prepared from reagents thawed immediately before addition to assay plates. Pre-mix one comprised human Arginase 1 or human Arginase 2, at a final concentration of 5 nM and 0.5 mM DTNB in assay buffer, 45 mM HEPES pH7.5, brij 35, 0.045% (w/v) and 100 μM MnCl2. Pre-mix two comprised freshly thawed 0.5 mM thioarginine in assay buffer. Fifteen microlitres of pre-mix one was dispensed to assay plates containing Examples 1-9, centrifuged and incubated for 30 minutes at room temperature prior to adding fifteen microlitres of pre-mix two.
(§3) Assay plates were centrifuged prior to reading absorbance at 412 nm in a Pherastar multi-mode plate reader to collect data at time point 0 (T0). The plates were incubated at room temperature for 60 min prior to reading again to collect data at time point 1 (T1). Data is derived by subtracting the A412 signal measured at T0 (time point 0) from that measured at T1 (time point 1). The data was transformed to % effect using the equation:
(§4) Compound % effect=100*[(X−min)/(max−min)],
(§5) where X represents the normalized value for the compound based on the Min (vehicle) and Max (reference compound) inhibition control.
(§6) The concentration of Examples 1-26 that inhibited the activity by 50% (i.e.the IC50) was calculated by plotting the % effect versus test compound concentration and fitting the data using the Genedata Screener Smart fit algorithm.

Human Arginase 2 = target: T2, Human Arginase 2 (Homo sapiens, UniProt P78540); experiment: Human Arginase 2 enzyme inhibition (thioarginine/DTNB absorbance at 412 nm); assay type: biochemical; details: recombinant enzyme 5 nM, 60 min, room temperature
T2 construct: made in house; host or cells: E. coli
T2 sequence (P78540 23-354): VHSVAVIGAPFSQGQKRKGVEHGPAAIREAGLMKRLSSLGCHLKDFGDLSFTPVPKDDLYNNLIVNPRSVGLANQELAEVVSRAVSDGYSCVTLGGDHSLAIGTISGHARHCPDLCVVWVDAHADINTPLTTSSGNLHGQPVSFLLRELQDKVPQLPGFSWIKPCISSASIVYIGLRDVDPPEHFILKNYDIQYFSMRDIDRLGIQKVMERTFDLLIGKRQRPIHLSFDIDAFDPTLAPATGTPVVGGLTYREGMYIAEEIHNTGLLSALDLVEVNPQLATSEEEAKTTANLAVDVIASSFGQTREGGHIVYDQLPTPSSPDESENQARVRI
From the text: as §1, §2, §3, §4, §5, §6

[1] = Bioavailability / pharmacokinetic study in male rats (IV and PO); assay type: in vivo; details: rat; for Vd: read-out: Vdss
Experimental: Example 14 is a prodrug form of Example 1. Examples 19 to 22 and 24 to 26 are prodrugs of example 18. […] Example 19 was formulated in 0.9% w/v saline pH 4 (adjusted with 1 M HCl) for IV dosing. The formulation was dosed at 2 mg/kg by femoral catheter to two male rats each (170-250 g). Jugular vein catheter serial blood samples were taken at 0.033, 0.083, 0.167, 0.5, 1, 2, 4, 8, and 24 hrs post-dose. For PO dosing, Example 19 was formulated in deionized water pH 4 (adjusted with 1 M HCl) and dosed at 5 mg/kg by oral gavage to two male rats each (170-250 g). Serial blood samples were taken by jugular vein catheter at 0.25, 0.5, 1, 1.5, 2, 3, 4, 8, and 24 hrs post dose. Plasma samples were generated from blood using low speed centrifugation. A single set of calibration standards containing Example 18 and Example 19 were prepared by spiking blank plasma. The samples and standards were extracted by precipitation with two volumes of acetonitrile followed by centrifugation. The results obtained were used to determine the Cl (mL/min/kg), Vdss (L/kg), Cmax (μM), AUC (μM h), tmax (h), and % F for both Example 18 and Example 19. Absolute bioavailability was determined by comparing the PO dose normalized AUC of Example 18 when dosed as Example 19, versus the dose normalized IV AUC of Example 18 when dosed as Example 18. Where appropriate, measured, not nominal, doses were used in the calculation. In an analogous fashion, the same procedure was repeated for Examples 14, 20 to 22, and 24 to 26.

[2] = pro-drug in plasma when dosed as pro-drug, IV 2 mg/kg
[3] = pro-drug in plasma when dosed as pro-drug, PO 5 mg/kg
[4] = plasma, payload when dosed as payload, IV

| IC50 (Human Arginase 1) [nM] | IC50 (Human Arginase 2) [nM] | bioavailability ([1]; plasma, 5 mg/kg, pro-drug when dosed as pro-drug, PO vs IV) [%] | clearance [1, 2] [mL/min/kg] | Vd [1, 2] [L/kg] | AUC [1, 3] [µM·h] | Cmax [1, 3] [nM] | Tmax [1, 3] [min] | clearance [1, 4] [mL/min/kg] | Vd [1, 4] [L/kg] | SMILES |
| --- | --- | --- | --- | --- | --- | --- | --- | --- | --- | --- |
| 60 | 110 | 8.3 | 16.4 | 0.47 | 1.4 | 660 | 30 | – | – | CC(C)[C@H](N)C(=O)NC[C@H](CCCB(O)O)[C@H](N)C(=O)O [Example 19, (2S,3S)-2-amino-3-(((S)-2-amino-3-methylbutanamido)methyl)-6-boronohexanoic acid] |
| 90 | 220 | – | – | – | – | – | – | 7.3 | 0.38 | NC[C@H](CCCB(O)O)[C@H](N)C(=O)O [Example 18, (2S,3S)-2-amino-3-(aminomethyl)-6-boronohexanoic acid] |
